Experiments:
Assay in all cases: viability relative to DMSO control (fraction); higher = less drug effect (more viable cells)
[1] = tested on: primary AML patient cells (S044); settings: 1 µM; 48 h
Method in brief: (§1)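 The cells were primary mononuclear tumour cells, either fresh or cryopreserved, isolated by Ficoll from blood or bone marrow or derived from processed lymph node. Each well of a 384-well plate received 4 × 10^4 cells onto compounds pre-plated at five concentrations, with one well per concentration. The medium was RPMI-1640 with penicillin/streptomycin, L-glutamine and human serum, and plates stood at 37 °C and 5% CO2 for 48 h. Viability is reported as CellTiter-Glo luminescence relative to the median of 16 inner DMSO wells.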

[2] = tested on: primary MCL patient cells (S041); settings: 48 h
Method in brief: as §1

[3] = tested on: primary AML patient cells (S011); settings: 0.2 µM; 48 h
Method in brief: as §1

[4] = tested on: primary AML patient cells (S007); settings: 1 µM; 48 h
Method in brief: as §1

[5] = tested on: primary AML patient cells (S002); settings: 0.04 µM; 48 h
Method in brief: as §1

[6] = tested on: primary AML patient cells (S019); settings: 1 µM; 48 h
Method in brief: as §1

[7] = tested on: primary DLBCL patient cells (S076); settings: 0.2 µM; 48 h
Method in brief: as §1

[8] = tested on: primary MCL patient cells (S068); settings: 48 h
Method in brief: as §1

[9] = tested on: primary AML patient cells (S017); settings: 0.04 µM; 48 h
Method in brief: as §1

[10] = tested on: primary AML patient cells (S056); settings: 0.008 µM; 48 h
Method in brief: as §1

[11] = tested on: primary AML patient cells (S006); settings: 0.04 µM; 48 h
Method in brief: as §1

[12] = tested on: primary AML patient cells (S079); settings: 48 h
Method in brief: as §1

[13] = tested on: primary BL patient cells (S005); settings: 48 h
Method in brief: as §1

[14] = tested on: primary AML patient cells (S037); settings: 48 h
Method in brief: as §1

[15] = tested on: primary MCL patient cells (S063); settings: 48 h
Method in brief: as §1

[16] = tested on: primary ALL patient cells (S048); settings: 0.008 µM; 48 h
Method in brief: as §1

[17] = tested on: primary AML patient cells (S072); settings: 48 h
Method in brief: as §1

[18] = tested on: primary MCL patient cells (S053); settings: 48 h
Method in brief: as §1

[19] = tested on: primary AML patient cells (S081); settings: 1 µM; 48 h
Method in brief: as §1

[20] = tested on: primary AML patient cells (S089); settings: 48 h
Method in brief: as §1

[21] = tested on: primary AML patient cells (S055); settings: 0.008 µM; 48 h
Method in brief: as §1

[22] = tested on: primary AML patient cells (S071); settings: 1 µM; 48 h
Method in brief: as §1

[23] = tested on: primary AML patient cells (S009); settings: 0.0016 µM; 48 h
Method in brief: as §1

[24] = tested on: primary B-PLL patient cells (S016); settings: 48 h
Method in brief: as §1

[25] = tested on: primary T-NHL patient cells (S058); settings: 0.0016 µM; 48 h
Method in brief: as §1

[26] = tested on: primary AML patient cells (S021); settings: 48 h
Method in brief: as §1

[27] = tested on: primary DLBCL patient cells (S049); settings: 48 h
Method in brief: as §1

[28] = tested on: primary AML patient cells (S012); settings: 48 h
Method in brief: as §1

[29] = tested on: primary DLBCL patient cells (S082); settings: 48 h
Method in brief: as §1

[30] = tested on: primary FL patient cells (S022); settings: 48 h
Method in brief: as §1

`C=CC(=O)N1CCC[C@@H](n2nc(-c3ccc(Oc4ccccc4)cc3)c3c(N)ncnc32)C1` [Ibrutinib] was tested, and the viability [1] was 0.777, the viability ([2]; 0.0016 µM) was 0.874 and the viability ([2]; 0.008 µM) was 0.802. For the same molecule, the viability [3] was 0.972, the viability [4] was 0.338 and the viability [5] was 1.18. The viability [6] was 1, the viability [7] was 0.89 and the viability ([8]; 0.0016 µM) was 0.77. For the same molecule, the viability ([8]; 0.008 µM) was 0.697, the viability ([8]; 0.2 µM) was 0.687 and the viability ([8]; 1 µM) was 0.783. It also gave a viability [9] of 1.1, a viability [10] of 1.1 and a viability [11] of 0.988. It also gave a viability ([12]; 0.04 µM) of 0.879, a viability ([12]; 0.2 µM) of 0.862 and a viability ([12]; 1 µM) of 1.25. For the same molecule, the viability ([13]; 0.0016 µM) was 1.1, the viability ([13]; 0.008 µM) was 0.982 and the viability ([13]; 0.2 µM) was 0.978. The viability ([14]; 0.0016 µM) was 1.4, the viability ([14]; 0.04 µM) was 1.5 and the viability ([14]; 1 µM) was 1.75. The viability ([15]; 0.0016 µM) was 0.475, the viability ([15]; 0.008 µM) was 0.292 and the viability ([15]; 0.04 µM) was 0.253. It also gave a viability ([15]; 0.2 µM) of 0.255, a viability ([15]; 1 µM) of 0.262 and a viability [16] of 1.12. The viability ([17]; 0.0016 µM) was 1.2, the viability ([17]; 0.04 µM) was 0.913 and the viability ([18]; 0.0016 µM) was 0.591. It also gave a viability ([18]; 0.008 µM) of 0.57, a viability ([18]; 0.04 µM) of 0.595 and a viability ([18]; 0.2 µM) of 0.588. For the same molecule, the viability ([18]; 1 µM) was 0.601, the viability [19] was 1.14 and the viability ([20]; 0.008 µM) was 0.988. It also gave a viability ([20]; 0.04 µM) of 1, a viability ([20]; 0.2 µM) of 0.615 and a viability ([20]; 1 µM) of 0.6. For the same molecule, the viability [21] was 0.949, the viability [22] was 0.673 and the viability [23] was 0.965. The viability ([24]; 0.0016 µM) was 0.576, the viability ([24]; 0.008 µM) was 0.507 and the viability ([24]; 0.04 µM) was 0.517. The viability ([24]; 0.2 µM) was 0.508, the viability ([24]; 1 µM) was 0.547 and the viability [25] was 1.12. It also gave a viability ([26]; 0.04 µM) of 1, a viability ([26]; 1 µM) of 0.913 and a viability ([27]; 0.0016 µM) of 0.848. For the same molecule, the viability ([27]; 0.04 µM) was 0.729, the viability ([27]; 0.2 µM) was 0.687 and the viability ([27]; 1 µM) was 0.686. It also gave a viability ([28]; 0.0016 µM) of 1.1, a viability ([28]; 0.008 µM) of 1.09 and a viability ([29]; 0.0016 µM) of 0.711. It also gave a viability ([29]; 0.008 µM) of 0.583, a viability ([29]; 0.04 µM) of 0.465 and a viability ([29]; 0.2 µM) of 0.458. For the same molecule, the viability ([29]; 1 µM) was 0.477, the viability ([30]; 0.2 µM) was 0.978 and the viability ([30]; 1 µM) was 0.978.

Reference: the supplement of paper PMC10733146
